LD50 and MIC data for 6 molecules are collected here from patent publication EP0319906A2, “Novel quinoline derivatives, processes for preparation thereof and antibacterial agent containing them” (Dainippon Pharmaceutical Co., Ltd., priority 1987, dated 1989).

Values after ≈ are worked out from the molar mass of the structure shown. Like-named read-outs stand apart in the source and are kept apart here. Bounds are passed on as bounds.

One data set in a line: in vivo. The note with it: mouse, po. The method, then:
A suspension containing each of compounds of this invention in various concentrations was orally given to male mice (ddY) at a dose of 0.1 ml per 10 g of body weight. The number of dead mice was counted after 7 days, and the value of median lethal dose (LD₅₀, mg/kg) was calculated in accordance with the Behrens-Kaerber method.

A further data set deals with C. Trachomatics G/ur 931. Nature of the data set: Antichlamydia activity, MIC in McCoy cells (inclusion bodies). It is filed as cell-based. The note with it: C. Trachomatics G/ur 931; McCoy cells, 36 °C for 40-48 hours; calculated for free base; read-out: minimum inhibitory concentrations (MIC). The method, then: (§1) The figures in the table show minimum inhibitory concentrations (MIC), (μg/ml), calculated for free base. Minimum inhibitory concentrations (MIC) were determined as follows. […] The cells were trypsinized and suspended in the same culture medium at a cell concentration of 1-2 x 10^5 cells/ml. One ml of the cell suspension was pipetted into flat-bottomed plastic tubes (14 mm in diameter) containing a cover slip (12 mm in diameter). The tubes were incubated in 5 % CO2-air at 36 °C for 20 hours. One-half ml of a chlamydial suspension (ca. 1-4 x 103 inclusion body forming units) was added into each tube, which was then centrifuged at 1500 x g for 60 minutes. The tubes were incubated for 1 hour at 36 °C. […] After further incubation at 36 °C for 40-48 hours, the cells on the cover glasses were stained with the Giemsa's solution. […] The MIC was defined as the lowest drug concentration where there were no inclusion bodies in all the cells on the cover slip.

Data set [1] deals with C. Trachomatics G/ur 1242. Described as above. It is filed as cell-based. The note with it: C. Trachomatics G/ur 1242; McCoy cells, 36 °C for 40-48 hours; calculated for free base; read-out: minimum inhibitory concentrations (MIC). The method, then: as §1
Data set [2] relates to C. Trachomatics G/ur 1448. Described as above. Particulars: C. Trachomatics G/ur 1448; McCoy cells, 36 °C for 40-48 hours; calculated for free base; read-out: minimum inhibitory concentrations (MIC). It is filed as cell-based. As for the experimental part:
as §1

The subject of data set [3] is C. Trachomatics G/ur 1317. The data set is described as above. It is filed as cell-based. The note with it: C. Trachomatics G/ur 1317; McCoy cells, 36 °C for 40-48 hours; calculated for free base; read-out: minimum inhibitory concentrations (MIC). The method, then:
as §1

The next data set relates to S. aureus Terajima. In words: In vitro antibacterial activity, twofold agar-dilution MIC. Particulars: Staphylococcus aureus; S. aureus Terajima; Mueller-Hinton agar, 20-hour incubation at 37 °C; calculated for free base; read-out: minimum inhibitory concentrations (MIC). It is filed as cell-based. The method, then:
(§2) The figures in the table show minimum inhibitory concentrations (MIC) (µg/ml), calculated for free base. […] One loopful of an overnight culture of test organisms in Mueller-Hinton broth was inoculated onto 10 ml drug- containing agar layers in petri dishes. Bacterial inocula contained approximately 10⁶ colonyl-forming units. […] The MIC was defined as the lowest drug concentration which prevented visible bacterial growth.

A further data set deals with S. marcescens S-9. Described as above. It is filed as cell-based. Particulars: Serratia marcescens, S9; S. marcescens S-9; Mueller-Hinton agar, 20-hour incubation at 37 °C; calculated for free base; read-out: minimum inhibitory concentrations (MIC). As for the experimental part:
as §2

The test system of the next data set is S. epidermidis No. 8. Described as above. It is filed as cell-based. Particulars: Staphylococcus epidermidis; S. epidermidis No. 8; Mueller-Hinton agar, 20-hour incubation at 37 °C; calculated for free base; read-out: minimum inhibitory concentrations (MIC). As for the experimental part: as §2
Another data set concerns S. aureus No. 80. The description is as above. It is filed as cell-based. Particulars: Staphylococcus aureus; S. aureus No. 80; Mueller-Hinton agar, 20-hour incubation at 37 °C; calculated for free base; read-out: minimum inhibitory concentrations (MIC). As for the experimental part: as §2
For the next data set, the system named is S. aureus 209 JC-1. Described as above. It is filed as cell-based. Particulars: Staphylococcus aureus, 209JC1; S. aureus 209 JC-1; Mueller-Hinton agar, 20-hour incubation at 37 °C; calculated for free base; read-out: minimum inhibitory concentrations (MIC). The method, then:
as §2

A further data set has as its system E. coli NIHJ JC-2. The data set is described as above. It is filed as cell-based. The note with it: Escherichia coli, NIHJJC2; E. coli NIHJ JC-2; Mueller-Hinton agar, 20-hour incubation at 37 °C; calculated for free base; read-out: minimum inhibitory concentrations (MIC). The method, then:
as §2

The test system of a further data set is S. pyogenes A65. The data set is described as above. It is filed as cell-based. The note with it: Streptococcus pyogenes; S. pyogenes A65; Mueller-Hinton agar, 20-hour incubation at 37 °C; calculated for free base; read-out: minimum inhibitory concentrations (MIC). The method, then:
as §2

A further data set has as its system P. aeruginosa 12. The data set is described as above. It is filed as cell-based. The note with it: Pseudomonas aeruginosa; P. aeruginosa 12; Mueller-Hinton agar, 20-hour incubation at 37 °C; calculated for free base; read-out: minimum inhibitory concentrations (MIC). The method, then: as §2
The test system of another data set is E. coli P-5101. The description is as above. It is filed as cell-based. Particulars: Escherichia coli, P5101; E. coli P-5101; Mueller-Hinton agar, 20-hour incubation at 37 °C; calculated for free base; read-out: minimum inhibitory concentrations (MIC). As for the experimental part:
as §2

[4] abbreviates: orally given to male mice (ddY), dead mice counted after 7 days, Behrens-Kaerber method, read-out: LD₅₀.

Take `Cc1c(F)c(N2CCC(N)C2)c(F)c2c1c(=O)c(C(=O)O)cn2C1CC1` (centres unmarked) [Compound 3, 7-(3-amino-1-pyrrolidinyl)-1-cyclopropyl-6,8-difluoro-5-methyl-1,4-dihydro-4-oxoquinoline-3-carboxylic acid]: the LD50 at 7 days in “in vivo” (male, ddY) is > 2000 mg/kg. Also, the MIC was 0.013 µg/mL (≈ 0.0358 µM) in the data set with C. Trachomatics G/ur 931; 0.013 µg/mL (≈ 0.0358 µM) in [1]; 0.013 µg/mL (≈ 0.0358 µM) in [2]; 0.013 µg/mL (≈ 0.0358 µM) in data set [3]; 0.0125 µg/mL (≈ 0.0344 µM) in the data set on S. aureus Terajima; 0.05 µg/mL (≈ 0.138 µM) with S. marcescens S-9. Also, the MIC in the data set on S. epidermidis No. 8 was 0.0125 µg/mL (≈ 0.0344 µM); in the data set with S. aureus No. 80, 0.0125 µg/mL (≈ 0.0344 µM); in the data set on S. aureus 209 JC-1 it was 0.0125 µg/mL (≈ 0.0344 µM); with E. coli NIHJ JC-2, 0.0125 µg/mL (≈ 0.0344 µM); in the data set with S. pyogenes A65, 0.2 µg/mL (≈ 0.55 µM); in the data set on P. aeruginosa 12 it was 0.2 µg/mL (≈ 0.55 µM). Moreover, the MIC in the data set on E. coli P-5101 is 0.0125 µg/mL (≈ 0.0344 µM).

For the molecule `Cc1c(F)c(N2CCNCC2)cc2c1c(=O)c(C(=O)O)cn2C1CC1` [Compound 5, 1-cyclopropyl-6-fluoro-5-methyl-7-(1-piperazinyl)-1,4-dihydro-4-oxoquinoline-3-carboxylic acid], in the data set “in vivo” (setting [4]), the LD50 at 7 days was > 2000 mg/kg. The MIC in the data set on S. aureus Terajima was 0.025 µg/mL (≈ 0.0724 µM); in the data set with S. marcescens S-9, 0.2 µg/mL (≈ 0.579 µM); in the data set on S. epidermidis No. 8, 0.025 µg/mL (≈ 0.0724 µM); in the data set on S. aureus No. 80, 0.0125 µg/mL (≈ 0.0362 µM); with S. aureus 209 JC-1 it was 0.05 µg/mL (≈ 0.145 µM); in the data set on E. coli NIHJ JC-2, 0.0125 µg/mL (≈ 0.0362 µM). The values for the MIC in the data set with S. pyogenes A65, with P. aeruginosa 12 and with E. coli P-5101 were 0.39 µg/mL (≈ 1.13 µM), 0.1 µg/mL (≈ 0.29 µM) and 0.0125 µg/mL (≈ 0.0362 µM), respectively.

Regarding `Cc1c(F)c(N2C[C@@H](C)N[C@@H](C)C2)cc2c1c(=O)c(C(=O)O)cn2C1CC1` [Compound 4, 1-cyclopropyl-6-fluoro-5-methyl-7-(cis-3,5-dimethyl-1-piperazinyl)-1,4-dihydro-4-oxoquinoline-3-carboxylic acid], the LD50 at 7 days in the data set “in vivo” (male, ddY) was > 2000 mg/kg. Besides, the MIC in the data set with S. aureus Terajima was 0.025 µg/mL (≈ 0.0669 µM); in the data set on S. marcescens S-9, 0.39 µg/mL (≈ 1.04 µM); in the data set on S. epidermidis No. 8 it was 0.05 µg/mL (≈ 0.134 µM); in the data set on S. aureus No. 80, 0.05 µg/mL (≈ 0.134 µM); with S. aureus 209 JC-1 it was 0.025 µg/mL (≈ 0.0669 µM); in the data set on E. coli NIHJ JC-2, 0.0125 µg/mL (≈ 0.0335 µM). Moreover, the values for the MIC in the data set on S. pyogenes A65, in the data set on P. aeruginosa 12 and in the data set on E. coli P-5101 were 0.1 µg/mL (≈ 0.268 µM), 0.2 µg/mL (≈ 0.536 µM) and 0.025 µg/mL (≈ 0.0669 µM), respectively.

Turning to `Cc1c(F)c(N2CCNCC2)c(F)c2c1c(=O)c(C(=O)O)cn2C1CC1` [Compound 2, 1-cyclopropyl-6,8--difluoro-5-methyl-7-(1-piperazinyl)-1,4-dihydro-4-oxoquinoline-3-carboxylic acid], the LD50 at 168 h in the data set “in vivo” (setting [4]) is > 2000 mg/kg. Besides, the MIC in the data set on C. Trachomatics G/ur 931 is 0.05 µg/mL (≈ 0.138 µM); in data set [1], 0.1 µg/mL (≈ 0.275 µM); in data set [2] it was 0.1 µg/mL (≈ 0.275 µM); in data set [3] it was 0.1 µg/mL (≈ 0.275 µM); with S. aureus Terajima it was 0.025 µg/mL (≈ 0.0688 µM); in the data set on S. marcescens S-9, 0.1 µg/mL (≈ 0.275 µM). The MIC with S. epidermidis No. 8 was 0.025 µg/mL (≈ 0.0688 µM); with S. aureus No. 80, 0.0125 µg/mL (≈ 0.0344 µM); with S. aureus 209 JC-1, 0.025 µg/mL (≈ 0.0688 µM); in the data set with E. coli NIHJ JC-2, 0.0063 µg/mL (≈ 0.0173 µM); with S. pyogenes A65, 0.39 µg/mL (≈ 1.07 µM); in the data set with P. aeruginosa 12, 0.2 µg/mL (≈ 0.55 µM). Besides, the MIC with E. coli P-5101 is 0.0063 µg/mL (≈ 0.0173 µM).

On to `O=C(O)c1cn(C2CC2)c2c(F)c(N3CCNCC3)c(F)cc2c1=O` [Compound B, 1-cyclopropyl-6,8-difluoro-7-(1-piperazinyl)-1,4-dihydro-4-oxoquinoline-3-carboxylic acid, reference compound], for which the MIC was 0.39 µg/mL (≈ 1.12 µM) in the data set on C. Trachomatics G/ur 931; 0.39 µg/mL (≈ 1.12 µM) in data set [1]; 0.39 µg/mL (≈ 1.12 µM) in data set [2]; 0.39 µg/mL (≈ 1.12 µM) in data set [3]; 0.1 µg/mL (≈ 0.286 µM) in the data set with S. aureus Terajima; 0.05 µg/mL (≈ 0.143 µM) in the data set on S. marcescens S-9. In addition, the MIC with S. epidermidis No. 8 is 0.1 µg/mL (≈ 0.286 µM); with S. aureus No. 80 it was 0.2 µg/mL (≈ 0.573 µM); in the data set on S. aureus 209 JC-1, 0.1 µg/mL (≈ 0.286 µM); with E. coli NIHJ JC-2, 0.0063 µg/mL (≈ 0.018 µM); in the data set with S. pyogenes A65, 0.39 µg/mL (≈ 1.12 µM); with P. aeruginosa 12 it was 0.1 µg/mL (≈ 0.286 µM). Besides, the MIC in the data set with E. coli P-5101 is 0.0063 µg/mL (≈ 0.018 µM).

In the case of `Cc1c(F)c(N2CCNCC2)c(C#N)c2c1c(=O)c(C(=O)O)cn2C1CC1` [Compound D, 8-cyano-1-cyclopropyl-6-fluoro-5-methyl-7-(1-piperazinyl)-1,4-dihydro-4-oxoquinoline-3-carboxylic acid, reference compound], the MIC with C. Trachomatics G/ur 931 was 1.56 µg/mL (≈ 4.21 µM); in data set [1] it was 3.13 µg/mL (≈ 8.45 µM); in data set [2], 3.13 µg/mL (≈ 8.45 µM); in data set [3], 3.13 µg/mL (≈ 8.45 µM); in the data set on S. aureus Terajima, 0.1 µg/mL (≈ 0.27 µM); with S. marcescens S-9 it was 0.39 µg/mL (≈ 1.05 µM). Besides, the MIC in the data set with S. epidermidis No. 8 is 0.1 µg/mL (≈ 0.27 µM); in the data set with S. aureus No. 80, 0.1 µg/mL (≈ 0.27 µM); in the data set on S. aureus 209 JC-1, 0.1 µg/mL (≈ 0.27 µM); with E. coli NIHJ JC-2 it was 0.0125 µg/mL (≈ 0.0337 µM); in the data set with S. pyogenes A65 it was 1.56 µg/mL (≈ 4.21 µM); in the data set on P. aeruginosa 12, 0.39 µg/mL (≈ 1.05 µM). The MIC with E. coli P-5101 was 0.0125 µg/mL (≈ 0.0337 µM).
